The results in this text go back to patent publication US20090131416A1, “SUBSTITUTED PYRAZINYL AMIDE COMPOUNDS AS MODULATORS OF THE HISTAMINE H3 RECEPTOR” (priority 2007, published 2009).

SMILES strings stand for the structures.

Assay [1] concerns the target T1, cloned human H3 receptors (Homo sapiens, UniProt Q9Y5N1).
T1 construct: expressed in transfected cells; host or cells: SK-N-MC cells
Briefly: H3 Receptor Binding (Human). The following applies: cloned human H3 receptors stably expressed in SK-N-MC cells; average of results. As to the method:
Binding of compounds to the cloned human H3 receptors, stably expressed in SK-N-MC cells, was performed as described by Barbier, A. J. et al. (Br. J. Pharmacol. 2004, 143(5), 649-661). Data for compounds tested in this assay are presented in Table 1, as an average of results obtained.

For another assay, the target named is T2, rat H3 receptor (Rattus norvegicus, UniProt Q9QYN8).
T2 construct: expressed in transfected cells; host or cells: SK-N-MC cell sublines
The experiment in a line: Cyclic AMP Accumulation (rat H3). It is filed as cell-based. As to conditions: SK-N-MC cells expressing reporter construct and rat H3 receptor; read-out: Rat pA2 (converted). The source says:
(§1) Sublines of SK-N-MC cells were created that expressed a reporter construct and either the human or rat H3 receptor. The pA2 values were obtained as described by Barbier et al. (2004).

Assay [2] addresses T3, rat H3 receptor (rat brain membranes) (Rattus norvegicus, UniProt Q9QYN8).
T3 construct: A rat brain without cerebellum (Zivic Laboratories Inc., Pittsburgh, Pa.) was homogenized; tissue Zivic Laboratories Inc; host or cells: rat brain without cerebellum, membranes
Briefly: H3 Receptor Binding (Rat). As to conditions: rat brain membranes without cerebellum; 0.8 nM N-[3H]-α-methylhistamine; 60 min at 25° C. The method, then:
A rat brain without cerebellum (Zivic Laboratories Inc., Pittsburgh, Pa.) was homogenized in 50 mM Tris-HCl/5 mM EDTA and centrifuged at 1,000 rpm for 5 min. The supernatant was removed and recentrifuged at 15,000 rpm for 30 min. Pellets were rehomogenized in 50 mM Tris/5 mM EDTA (pH 7.4). Membranes were incubated with 0.8 nM N-[^3H]-α-methylhistamine plus/minus test compounds for 60 min at 25° C. and harvested by rapid filtration over GF/C glass fiber filters (pretreated with 0.3% polyethylenimine) followed by four washes with buffer. Nonspecific binding was defined in the presence of 100 μM histamine. Inhibitory concentration (responsible for 50% inhibition of maximal effect, IC50) values were determined by a single site curve-fitting program (GraphPad, San Diego, Calif.) and converted to Ki values based on a N-[^3H]-α-methylhistamine dissociation constant (Kd) of 0.8 nM. The following results were obtained: Example 2, 34 nM; Example 3, 33 nM; Example 4,18 nM; Example 5, 9.2 nM.

The next assay concerns the target T4, human H3 receptor (Homo sapiens, UniProt Q9Y5N1).
T4 construct: expressed in transfected cells; host or cells: SK-N-MC cell sublines
Briefly: Cyclic AMP Accumulation (human H3). As to conditions: SK-N-MC cells expressing reporter construct and human H3 receptor; read-out: Human pA2 (converted). It is filed as cell-based.
Description: as §1

T4 sequence (Q9Y5N1 whole entry): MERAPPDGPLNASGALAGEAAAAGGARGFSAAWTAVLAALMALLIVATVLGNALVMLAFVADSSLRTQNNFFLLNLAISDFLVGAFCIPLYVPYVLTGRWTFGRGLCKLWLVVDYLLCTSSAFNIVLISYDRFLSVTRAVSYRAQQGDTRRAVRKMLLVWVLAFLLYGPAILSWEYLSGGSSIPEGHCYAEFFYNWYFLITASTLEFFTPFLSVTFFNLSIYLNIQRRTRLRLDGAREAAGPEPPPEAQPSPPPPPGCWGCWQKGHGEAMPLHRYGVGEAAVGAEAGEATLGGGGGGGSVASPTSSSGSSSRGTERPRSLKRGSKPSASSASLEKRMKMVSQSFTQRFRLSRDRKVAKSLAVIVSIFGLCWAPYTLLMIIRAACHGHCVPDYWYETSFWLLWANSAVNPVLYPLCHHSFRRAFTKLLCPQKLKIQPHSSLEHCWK
T1 sequence (Q9Y5N1 whole entry): as above
T2 sequence (Q9QYN8 whole entry): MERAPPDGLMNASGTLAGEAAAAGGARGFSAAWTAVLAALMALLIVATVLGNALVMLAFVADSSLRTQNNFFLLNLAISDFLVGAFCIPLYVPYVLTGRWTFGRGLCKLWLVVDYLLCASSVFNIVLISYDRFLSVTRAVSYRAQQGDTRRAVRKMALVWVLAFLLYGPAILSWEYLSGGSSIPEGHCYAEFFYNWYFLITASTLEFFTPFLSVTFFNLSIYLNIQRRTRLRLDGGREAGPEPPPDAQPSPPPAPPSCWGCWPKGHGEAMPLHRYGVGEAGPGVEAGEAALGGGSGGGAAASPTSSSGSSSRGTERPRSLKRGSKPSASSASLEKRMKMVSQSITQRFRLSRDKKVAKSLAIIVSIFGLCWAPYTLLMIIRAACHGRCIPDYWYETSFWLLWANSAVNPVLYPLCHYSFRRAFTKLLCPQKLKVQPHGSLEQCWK
T3 sequence (Q9QYN8 whole entry): as above

As for `N#Cc1cccc(Oc2cnc(C(=O)N3CCN(C4CCC4)CC3)cn2)c1` [Example 10, 3-[5-(4-Cyclobutyl-piperazine-1-carbonyl)-pyrazin-2-yloxy]-benzonitrile], the Ki (in general, the dissociation constant of the complex between target and ligand, obtained from inhibition or displacement) in assay [1] stood at 28 nM.
Turning to `O=C(c1cnc(Oc2cccc(F)c2)cn1)N1CCCN(C2CCC2)CC1` [Example 4, (4-Cyclobutyl-[1,4]diazepan-1-yl)-[5-(3-fluoro-phenoxy)-pyrazin-2-yl]-methanone], the values for the Kb at rat H3 receptor and on human H3 receptor were 6.92 nM and 0.537 nM, respectively. Also, the Ki in assay [2] was 18 nM; in assay [1], 2.6 nM.
As to `O=C(c1cnc(OC2CCCCC2)cn1)N1CCCN(C2CCC2)CC1` [Example 11, (4-Cyclobutyl-[1,4]diazepan-1-yl)-(5-cyclohexyloxy-pyrazin-2-yl)-methanone], the Kb on rat H3 receptor is 9.55 nM; at human H3 receptor it was 0.525 nM. The compound further yielded a Ki in assay [1] of 3.2 nM.
For the compound `O=C(c1cnc(Oc2ccccc2)cn1)N1CCN(C2CCC2)CC1` [Example 7, (4-Cyclobutyl-piperazin-1-yl)-(5-phenoxy-pyrazin-2-yl)-methanone], the Ki in assay [1] was 36 nM.
Regarding `O=C(c1cnc(Oc2ccc(F)cc2)cn1)N1CCN(C2CCC2)CC1` [Example 6, (4-Cyclobutyl-piperazin-1-yl)-[5-(4-fluoro-phenoxy)-pyrazin-2-yl]-methanone], the inhibition constant (Ki) in assay [1] was determined as 19 nM.
Consider `O=C(c1cnc(Oc2ccccc2)cn1)N1CCCN(C2CCC2)CC1` [Example 2, (4-Cyclobutyl-[1,4]diazepan-1-yl)-(5-phenoxy-pyrazin-2-yl)-methanone], for which the figures for the Ki in assay [2] and in assay [1] were 34 nM and 2.9 nM, respectively.
On to `O=C(c1cnc(Oc2ccc(F)cc2)cn1)N1CCCN(C2CCC2)CC1` [Example 1, (4-Cyclobutyl-[1,4]diazepan-1-yl)-[5-(4-fluoro-phenoxy)-pyrazin-2-yl]-methanone], for which the figures for the Kb on rat H3 receptor and on human H3 receptor were 13.5 nM and 0.871 nM, respectively. For the same compound, the Ki in assay [1] was found to be 2.4 nM.
The compound `O=C(c1cnc(Oc2cccc(F)c2)cn1)N1CCN(C2CCC2)CC1` [Example 9, (4-Cyclobutyl-piperazin-1-yl)-[5-(3-fluoro-phenoxy)-pyrazin-2-yl]-methanone] came in with a Ki in assay [1] of 37 nM.
On the same count and under the same terms, the value for `O=C(c1cnc(OC2CCCCC2)cn1)N1CCN(C2CCC2)CC1` [Example 12, (4-Cyclobutyl-piperazin-1-yl)-(5-cyclohexyloxy-pyrazin-2-yl)-methanone] was 51 nM.
With `O=C(c1cnc(Oc2ccc(Cl)cc2)cn1)N1CCCN(C2CCC2)CC1` [Example 3, [5-(4-Chloro-phenoxy)-pyrazin-2-yl]-(4-cyclobutyl-[1,4]diazepan-1-yl)-methanone], the Kb at rat H3 receptor was 12.6 nM; on human H3 receptor, 1.2 nM. In addition, the values for the inhibition constant Ki in assay [2] and in assay [1] were 33 nM and 3.7 nM, respectively.
In turn, `O=C(c1cnc(Oc2ccc(Cl)cc2)cn1)N1CCN(C2CCC2)CC1` [Example 8, [5-(4-Chloro-phenoxy)-pyrazin-2-yl]-(4-cyclobutyl-piperazin-1-yl)-methanone] displayed a Ki in assay [1] of 38 nM.
For `N#Cc1cccc(Oc2cnc(C(=O)N3CCCN(C4CCC4)CC3)cn2)c1` [Example 5, 3-[5-(4-Cyclobutyl-[1,4]diazepane-1-carbonyl)-pyrazin-2-yloxy]-benzonitrile], the results for the Ki in assay [2] and in assay [1] were 9.2 nM and 1.5 nM, respectively.
